# Experimental data reported in ChEMBL document CHEMBL3507680, “University of Dundee, Gates Library screen for HepG2 cell viability”.
# Test: Human HepG2 cell viability assay in 384 well format
# Format: toxicity, cell-based
# Design: dose 125 nL, time 70.5 hour; concentration not given beside the values
# Conditions: HepG2 cells, read-out: Inhibition
row,SMILES,cytotoxicity at 70.5 h
1,Cc1cc(C)n(CC2CCCCN2C(=O)c2ccc3[nH]nnc3c2)n1 (stereo unspecified),-17.7%
2,Cc1cnn(CC2CCCN2C(=O)c2ccc3c(c2)nnn3C)c1 (stereo unspecified),-6.19%
3,CSCC(CCO)NC(=O)Nc1cccc(Br)c1C (stereo unspecified),-21.2%
4,O=C(NCCCn1nc2ccccn2c1=O)NCCC1CCC1,-3.21%
5,Cc1csc(N2CCN(Cc3cccnc3)CC2C)n1 (stereo unspecified),-19.6%
6,CC(=O)NCCNC(=O)CN1CCCC1Cn1nc(C)nc1C (stereo unspecified),-16.9%
7,Cc1csc(N2CCN(Cc3cscn3)CC2C)n1 (stereo unspecified),-4.06%
8,CCC(CC)NC(=O)NCc1ccnc(-n2ccnc2C)c1,-2.5%
9,CS(=O)(=O)NCC1CCCN(C(=O)c2ccc3c(c2)CCCC3)C1 (stereo unspecified),5.26%
10,CC(C)S(=O)(=O)NCC1CCCN(C(=O)c2ccc(F)cc2)C1 (stereo unspecified),9.08%
11,Cc1nccn1-c1cc(CNC(=O)C2CCC(=O)N2)ccn1 (stereo unspecified),-6.29%
12,OCCN1CCC(CNCc2ccc(Br)cc2)CC1,-1.11%
13,CC(Oc1ccccc1C(F)(F)F)C(=O)NCCCC(N)=O (stereo unspecified),11.1%
14,COc1c(C2CCCN2C(=O)c2ccco2)c(C)nn1C (stereo unspecified),8.77%
15,COc1c(C2CCCN2C(=O)c2cc(C3CC3)on2)c(C)nn1C (stereo unspecified),-5.95%
16,Cc1ccc(NC(=O)c2ccc(CC3CC(=O)NC3=O)cc2)cc1O (stereo unspecified),-2.83%
17,CC1CN(C)c2ccccc2CN1C(=O)c1cnsn1 (stereo unspecified),-0.187%
18,CC1CN(C)c2ccccc2CN1C(=O)c1cscn1 (stereo unspecified),-5.75%
19,O=C(c1cncc(Br)c1)N1CCCc2c(F)cc(F)cc21,-3%
20,Cc1ccc2c(c1)CCCN2C(=O)c1cncc(Br)c1,20.3%
21,Cc1cc(F)c2c(c1)CCCN2C(=O)c1cncc(Br)c1,0.703%
22,O=C(CN(Cc1ccco1)C1CC1)Nc1ccc(Br)cn1,-17.6%
23,Cc1cc(C(C)NC(=O)CCn2nnc3ccccc3c2=O)c(C)o1 (stereo unspecified),-5.41%
24,COCc1cccc(C(=O)N(C)Cc2ncc(C)c(OC)c2C)c1,-8.49%
25,O=C1C(NCc2cccc(O)c2)CCN1Cc1ccccc1 (stereo unspecified),-0.773%

row,SMILES,cytotoxicity at 70.5 h
1,CCOCC(=O)NC(C#N)c1cnn(-c2ccccc2)c1 (stereo unspecified),-9.95%
2,COc1cccc(CCCn2cnnc2[S+](C)[O-])c1 (stereo unspecified),-7.37%
3,CS(=O)(=O)c1nccn1Cc1ccc(C(N)=O)cc1,-4.15%
4,COc1ccc(CCn2cnnc2[S+](C)[O-])cc1 (stereo unspecified),-10%
5,O=C(c1cc[nH]n1)N(Cc1ccccc1)CC1CCC1,-9.65%
6,CC(C)CN1Cc2cccc(NC(=O)Cc3ccon3)c2C1,-4.05%
7,COc1ccc(CN2CCN(c3ncc(Cl)cn3)CC2)cc1,13.2%
8,O=C(CCc1ccco1)Nc1ccc(Br)cn1,28.6%
9,C[S+]([O-])c1nncn1CCc1ccccc1 (stereo unspecified),17.1%
10,Cc1cc(CSc2nc(=O)ccn2C(C)C)no1,-3.31%
11,Cc1nc(CSc2nc(=O)ccn2C(C)C)cs1,-6.6%
12,Cc1c(C(=O)N(CCN(C)C)Cc2ccccn2)oc2ccccc12,-5.85%
13,Cc1occc1C(=O)N(CCN(C)C)Cc1ccccn1,15.9%
14,Cc1cnn(-c2ccc(C(=O)N3CCN(C)CC3C)cc2)c1 (stereo unspecified),-3.9%
15,CSC(C)C(=O)N1CCN(CCO)CC1 (stereo unspecified),-6.94%
16,CC(C)COCCC(=O)NS(=O)(=O)c1ccc(Cl)s1,-16.7%
17,CCC(Nc1nnnn1-c1ccccc1)C(=O)NCc1cccs1 (stereo unspecified),-8.74%
18,Cc1cc(C(=O)N2CCN(Cn3cc(Cl)cn3)CC2)c(C)o1,-5.19%
19,CC(=O)NC(C)C(=O)Nc1ccc(OCc2cccc(F)c2)cc1C (stereo unspecified),-9.98%
20,CC(=O)N1CCN(C(=O)CNc2c(C)cccc2OC(F)F)CC1,-10.2%
21,CN(C)S(=O)(=O)c1ccc(CSCC(=O)NC(C)(C)C)o1,-8.48%
22,COc1ccsc1C(=O)Nc1cc(Cl)c(=O)n(C)c1,-5.8%
23,CCc1ccc(C(=O)O)cc1S(=O)(=O)Nc1c(C)ccn(C)c1=O,-9.15%
24,O=C(COCC(F)(F)F)NC1CCCc2cc(OC(F)F)ccc21 (stereo unspecified),-6.74%
25,CCc1ccsc1C(=O)N1CCS(=O)(=O)CC1,-8.8%

row,SMILES,cytotoxicity at 70.5 h
1,CNC(=O)CC1CCN(C(=O)NCc2coc3ccccc23)CC1,7.31%
2,CCOc1cc(CNC(=O)C(C#N)c2nc(C)cs2)ccc1OC(F)F (stereo unspecified),-0.465%
3,CC(=O)N1CCC(Nc2cccc(OC(F)F)c2C)CC1,-7.15%
4,CN1CCN(C(=O)Cc2ccc(S(=O)(=O)C(F)F)cc2)CC1,-8.11%
5,CCOCCCC(=O)NS(=O)(=O)c1ccc(C)s1,-0.611%
6,COCCOC1CCN(C(=O)NCc2coc3ccccc23)CC1,-6.59%
7,CC(c1ccccn1)N(C)C(=O)NCCn1c(=O)oc2ccccc21 (stereo unspecified),6.82%
8,Cc1ccc2c(c1)C(NCc1nccn1Cc1ccccc1)CCCO2 (stereo unspecified),-13.4%
9,CC(C)c1nc(CNC(C(=O)N2CCOCC2)C(C)C)no1 (stereo unspecified),-5.23%
10,Cc1nc(CNC(C(=O)N2CCOCC2)C(C)C)oc1C (stereo unspecified),-5.87%
11,CN(CCOc1ccc(Cl)cc1)Cc1ccc(S(=O)(=O)N(C)C)o1,-2.41%
12,Cc1noc(C)c1CC(=O)Nc1ccn(CC(N)=O)n1,-5.49%
13,O=C(Nc1ccccn1)C1CCN(Cc2cccc3c2OCCO3)CC1,27.9%
14,NC(=O)[C@@H]1Cc2ccccc2CN1S(=O)(=O)N1CCCCCC1,-4.6%
15,CC(=O)N(C)c1nc(Cn2nnnc2C2CCCC2)cs1,0.35%
16,Cn1cnnc1C1CCCN(C(=O)c2cc(-c3ccccc3)on2)C1 (stereo unspecified),-9.15%
17,CS(=O)(=O)c1cccc(C(=O)NCc2nc3cc(F)ccc3[nH]2)c1,-5.23%
18,CN(CC(F)(F)F)C(=O)CNC(=O)N1CCCC(C(F)(F)F)C1 (stereo unspecified),-2.98%
19,CC(NC(=O)Cc1ccccc1F)(C(N)=O)c1cccc(Cl)c1 (stereo unspecified),-6.76%
20,CCc1nc(CC)n(CC(=O)NCc2cccc(C)c2)n1,-6.53%
21,CSc1[nH]c(=O)c(C(=O)N2CCCC2c2cccs2)cc1C#N (stereo unspecified),-2.03%
22,CNC(=O)CN1CCC(OCc2ccc(Cl)c(Cl)c2)CC1,3.41%
23,CC(NC(=O)Cc1cccs1)(C(N)=O)c1cccc(Cl)c1 (stereo unspecified),1.57%
24,CC(C)c1noc(CN2CCOCC2C)n1 (stereo unspecified),-4.78%
25,CC(C)Cc1noc(CN2CCOCC2C)n1 (stereo unspecified),-1.45%

row,SMILES,cytotoxicity at 70.5 h
1,CCCc1noc(CN2CCOCC2C)n1 (stereo unspecified),20.1%
2,CCc1nc(CC)n(CC(=O)NCc2ccccc2C)n1,-10.6%
3,CC(O)(CNC(=O)c1cccnc1-n1cccn1)c1ccsc1 (stereo unspecified),-7.4%
4,COCCN1CCC(CNC(=O)c2cc(Cl)c[nH]2)CC1,-11.1%
5,CSCc1cc(F)ccc1CNCc1cccnc1,-6.28%
6,CCn1nc(C)cc1C(=O)NCc1noc(C(C)(C)C)n1,-1.63%
7,Cn1c(CC2CCS(=O)(=O)C2)nnc1SCCOc1ccccc1F (stereo unspecified),-8.16%
8,N#CCCN(C(=O)CN1CCCC1C1CCCCC1)c1ccccc1 (stereo unspecified),11.9%
9,Cc1ccc2oc(CNC(C)c3nnc4n3CCCC4)cc2c1 (stereo unspecified),5.79%
10,CC(NCc1ccc(Cl)o1)c1nnc2n1CCCC2 (stereo unspecified),9.09%
11,Cc1ccc(C(=O)NCCS(C)(=O)=O)c(=O)[nH]1,-5.11%
12,COc1cc(CN(C)C(=O)NCCC2CCCO2)ccc1SC (stereo unspecified),-3.73%
13,Cc1nnc(NC(=O)CN(C)CC2CCCN2c2cccnn2)s1 (stereo unspecified),18.3%
14,Cc1ccc(CNC2CCN(CCc3ccncc3)CC2)s1,1.18%
15,Cc1cc(C)n(-c2cncc(N3CCN(C(=O)C(C)(C)C)CC3)n2)n1,1.04%
16,CCS(=O)(=O)NC(C(=O)NC)c1ccc(F)c(F)c1 (stereo unspecified),2.45%
17,CNC(=O)C(NC(=O)c1nccn2ccnc12)c1ccc(F)c(F)c1 (stereo unspecified),-1.99%
18,CC(=O)N1CCN(C(=O)C2SCCc3sccc32)CC1 (stereo unspecified),20.4%
19,CC(CNC(=O)N1CCN(CC(F)F)CC1)Cc1cccs1 (stereo unspecified),1.43%
20,N#CCCN(C(=O)CN1CCCC1Cc1ccccc1)c1ccccc1 (stereo unspecified),0.569%
21,CCC1CCCCN1C(=O)c1ccc2[nH]nnc2c1 (stereo unspecified),-2.33%
22,COc1cccc(CN(C)Cc2ccc(C#N)cc2)c1OC,-1.54%
23,Cc1cccnc1NC(=O)C1CCCN1Cc1ccccc1 (stereo unspecified),8.68%
24,CS(=O)(=O)NCCC(=O)NC1CCc2nccn2C1 (stereo unspecified),-4.75%
25,CS(=O)(=O)NCC(=O)NC1CCc2nccn2C1 (stereo unspecified),-7.92%

row,SMILES,cytotoxicity at 70.5 h
1,Cc1nc(C2CCCN2C(=O)CNS(C)(=O)=O)no1 (stereo unspecified),-13.3%
2,O=C(NCCCn1cccn1)N1CCCC1c1ccncc1 (stereo unspecified),6.98%
3,CNC(=O)NC(=O)CN1CCC(c2c[nH]c3ccc(OC)cc23)CC1,-5.75%
4,CCC(=O)NCC(=O)NCc1cc(Br)ccc1OC(F)F,-5.29%
5,CN(C)C(=O)CNC(=O)c1cc(Br)c2c(c1)OCCO2,-3.47%
6,CCSCCC(=O)Nc1ncn(CC(=O)NCc2ccccc2)n1,-7.93%
7,CC(Sc1nnnn1C1CCOCC1)C(=O)NC1CCCCC1 (stereo unspecified),-3.49%
8,CNC(=O)Cn1cc(C#N)c(=O)c2cc(Br)ccc21,-3.12%
9,O=C(O)c1csc(S(=O)(=O)N2CCCc3ccc(F)cc32)c1,-0.904%
10,C[S+]([O-])CCCNC(=O)c1cc(Br)c2c(c1)OCCO2 (stereo unspecified),-0.213%
11,CCOCCn1nnc(C2(NC(=O)c3ccccc3)CCCC2)n1,3.3%
12,CN(CCNC(=O)N1CCN(Cc2ccon2)CC1)c1ccccc1,-5.16%
13,Cc1cnn(Cc2cc(F)ccc2F)c1NC(=O)C1COCCO1 (stereo unspecified),-0.231%
14,NC(=O)C1CCN(Cc2cccc(NC(=O)c3ccsc3)c2)CC1,0.035%
15,CCc1nsc(NC2CCCn3nc(CC)nc32)n1 (stereo unspecified),-5.19%
16,CCc1nc(CCNC(=O)Nc2cc(C(N)=O)sc2C)cs1,17%
17,CC(=O)Nc1c(C)cnn1Cc1cc(F)ccc1F,-2.07%
18,CSC(C)(C)CNC(=O)NCCC1CCN(C)CC1,-3.38%
19,CN1CCCC(CNC(=O)N2CCN(Cc3ccon3)CC2)C1 (stereo unspecified),-0.171%
20,CC(NC(=O)Cn1cccn1)c1cccnc1 (stereo unspecified),-4.88%
21,COc1ccc(-n2cnnc2SCC(C)(C)O)cn1,-3.59%
